Results on five molecules are retold here after patent publication US20200411135A1, “Neoantigen Identification with Pan-Allele Models” (Gritstone Oncology, Inc., priority 2018, published 2020).

Peptide text beside a SMILES is read from it.

In the experiment the test system is in vitro expanded PBMCs (neoantigen-reactive T-cells) from NSCLC patients. The experiment in a line: IFN-gamma ELISpot on in vitro stimulated (IVS) patient PBMCs with patient-specific neoantigen peptides and peptide pools. Format: cell-based, human. The settings on record: patient PBMCs after 14 days IVS; >2-fold increase above DMSO background considered positive. The method, then: To do so, archival FFPE tumor biopsies and 5-30 ml of peripheral blood were analyzed from 9 patients with metastatic NSCLC undergoing anti-PD(L)1 therapy (Supplementary Table 1: Patient demographics and treatment information for N=9 patients studied in FIGS. 26A-C. Key fields include tumor stage and subtype, anti-PD1 therapy received, and summary of NGS results.). […] The full MS model was applied to prioritize 20 neoepitopes per patient for testing against pre-existing anti-tumor T-cell responses. To focus the analysis on likely CD8 responses, the prioritized peptides were synthesized as 8-11mer minimal epitopes (Methods), and then peripheral blood mononuclear cells (PBMCs) were cultured with the synthesized peptides in short in vitro stimulation (IVS) cultures to expand neoantigen-reactive T-cells (Supplementary Table 2). After two weeks the presence of antigen-specific T-cells was assessed using IFN-gamma ELISpot against the prioritized neoepitopes. In seven patients for whom sufficient PBMCs were available, separate experiments were also performed to fully or partially deconvolve the specific antigens recognized. The results are depicted in FIGS. 26A-C and 27A-30.
FIG. 26A depicts detection of T-cell responses to patient-specific neoantigen peptide pools for nine patients. For each patient, predicted neoantigens were combined into 2 pools of 10 peptides each according to model ranking and any sequence homologies (homologous peptides were separated into different pools). Then, for each patient, the in vitro expanded PBMCs for the patient were stimulated with the 2 patient-specific neoantigen peptide pools in IFN-gamma ELISpot. Data in FIG. 26A are presented as spot forming units (SFU) per […] plated cells with background (corresponding DMSO negative controls) subtracted. Responses of single wells (patients 1-038-001, CU02, CU03 and 1-050-001) or replicates with mean and standard deviation (all other patients) against cognate peptide pools #1 and #2 are shown for patients 1-038-001, 1-050-001, 1-001-002, CU04, 1-024-001, 1-024-002 and CU05. For patients CU02 and CU03, cell numbers allowed testing against specific peptide pool #1 only. Samples with values >2-fold increase above background were considered positive and are designated with a star (responsive donors include patients 1-038-001, CU04, 1-024-001, 1-024-002, and CU02). Unresponsive donors include patients 1-050-001, 1-001-002, CU05, and CU03. […] depicts photographs of ELISpot wells with in vitro expanded PBMCs from patient CU04, stimulated in IFN-gamma ELISpot with DMSO negative control, PHA positive control, CU04-specific neoantigen peptide pool #1, CU04-specific peptide 1, CU04-specific peptide 6, and CU04-specific peptide 8.
Pre-existing T-cells from healthy donor or patient samples were expanded in the presence of cognate peptides and IL-2 in a similar approach to that applied by Ott el al.^81 Briefly, thawed PBMCs were rested overnight and stimulated in the presence of peptide pools (10 μM per peptide, 10 peptides per pool) in ImmunoCult™-XF T-cell Expansion Medium ([…] Technologies) with 10 IU/ml rhIL-2 (R&D Systems Inc., Minneapolis, Minn.) for 14 days in 24-well tissue culture plates. Cells were seeded at 2×10^6 cells/well and fed every 2-3 days by replacing 2/3 of the culture media.
Detection of IFNγ-producing T-cells was performed by ELISpot assay^142. […]
Turning to `CC(C)[C@H](NC(=O)[C@H](CCC(N)=O)NC(=O)[C@@H](NC(=O)[C@H](CO)NC(=O)[C@@H](NC(=O)[C@H](CC(=O)O)NC(=O)[C@@H](N)CCC(N)=O)C(C)C)C(C)C)C(=O)N[C@@H](CCC(=O)O)C(=O)N[C@@H](CCCNC(=N)N)C(=O)O` (H-QDVSVQVER-OH; N-terminus and C-terminus assumed), the “T-cell response / recognition in IFN-gamma ELISpot” value (“T-cell response / recognition” below) was “peptide-specific T-cell response was deconvolved”.

Turning to `CSCC[C@H](NC(=O)[C@@H](NC(=O)[C@H](CC(C)C)NC(=O)[C@@H](NC(=O)[C@H](C)NC(=O)[C@H](C)NC(=O)[C@H](CC(=O)O)NC(=O)[C@H](C)NC(=O)[C@@H](NC(=O)[C@@H](N)CCC(=O)O)C(C)C)[C@@H](C)O)[C@@H](C)O)C(=O)O` (H-EVADAATLTM-OH; N-terminus and C-terminus assumed), the “T-cell response / recognition” value was “peptide-specific T-cell response was deconvolved”.

On to `CC(C)C[C@H](NC(=O)[C@@H](NC(=O)[C@H](CC(=O)O)NC(=O)[C@@H](NC(=O)[C@H](CC(=O)O)NC(=O)[C@H](CCCCN)NC(=O)[C@H](CCCCN)NC(=O)[C@@H](NC(=O)CN)[C@@H](C)O)C(C)C)C(C)C)C(=O)N[C@@H](CCCCN)C(=O)O` (H-GTKKDVDVLK-OH; N-terminus and C-terminus assumed), for which the “T-cell response / recognition” value is on record as “recognized by CD8 T-cells”.

In the case of `CC[C@H](C)[C@H](NC(=O)[C@H](CC(N)=O)NC(=O)[C@H](CCC(=O)O)NC(=O)[C@@H](N)CC(=O)O)C(=O)N[C@H](C(=O)N[C@H](C(=O)N[C@H](C(=O)N[C@@H](CCC(N)=O)C(=O)N[C@@H](Cc1ccccc1)C(=O)O)[C@@H](C)CC)[C@@H](C)O)[C@@H](C)O` (H-DENITTIQF-OH; N-terminus and C-terminus assumed), the “T-cell response / recognition” value is “peptide-specific T-cell response was deconvolved”.

Take `CC(C)[C@H](NC(=O)[C@@H](NC(=O)[C@@H](N)CC(=O)O)[C@@H](C)O)C(=O)N[C@@H](CCC(=O)O)C(=O)N[C@@H](Cc1ccc(O)cc1)C(=O)N1CCC[C@H]1C(=O)N[C@@H](Cc1ccc(O)cc1)C(=O)N[C@H](C(=O)N[C@@H](CO)C(=O)N[C@@H](Cc1ccccc1)C(=O)O)[C@@H](C)O` (H-DTVEYPYTSF-OH; N-terminus and C-terminus assumed): the “T-cell response / recognition” value is on record as “peptide-specific T-cell response was deconvolved”.
